In the supplement of paper PMC11962398:

How the values were obtained:
[1] = compound: T1, C[C@H]1CNCCN1c1nccc(-c2noc3c2CCC[C@@]32CCCc3sc(N)c(C#N)c32)n1 [BI-2493]; settings: 5 days
Description: (§1)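 PRISM pooled barcoded cancer cell line viability screen (Broad Institute) with BI-2493 at 8 doses in threefold dilutions from 0.00457 to 10 µmol/L, 5-day treatment; curves fitted per cell line. IC50 is undefined (placeholder) for resistant lines. AUC is capped at 1, and sensitivity is reported as 1 − AUC.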

[2] = compound: T1, BI-2493; assay: 1 - AUC of viability dose-response curve (sensitivity) (fraction); higher = more sensitive; settings: 5 days
Description: as §1

## G361_SKIN
[1]
  IC50 of cell viability: 4.01 µM
[2]
  1 - AUC of viability dose-response curve: 0.117

## G401_SOFT_TISSUE
[1]
  IC50 of cell viability: > 10 µM
[2]
  1 - AUC of viability dose-response curve: 0.17

## G402_SOFT_TISSUE
[1]
  IC50 of cell viability: 4.25 µM
[2]
  1 - AUC of viability dose-response curve: 0.117

## G415_BILIARY_TRACT
[1]
  IC50 of cell viability: 2.22 µM
[2]
  1 - AUC of viability dose-response curve: 0.245

## GAMG_CENTRAL_NERVOUS_SYSTEM
[1]
  IC50 of cell viability: 8.24 µM
[2]
  1 - AUC of viability dose-response curve: 0.0333

## GB1_CENTRAL_NERVOUS_SYSTEM
[1]
  IC50 of cell viability: > 10 µM
[2]
  1 - AUC of viability dose-response curve: 0.00342

## GB2_BILIARY_TRACT
[1]
  IC50 of cell viability: 2.24 µM
[2]
  1 - AUC of viability dose-response curve: 0.256

## GCIY_STOMACH
[1]
  IC50 of cell viability: > 10 µM
[2]
  1 - AUC of viability dose-response curve: 0.00163

## GCT27_TESTIS
[1]
  IC50 of cell viability: > 10 µM
[2]
  1 - AUC of viability dose-response curve: 0.128

## GCT_SOFT_TISSUE
[1]
  IC50 of cell viability: 6.05 µM
[2]
  1 - AUC of viability dose-response curve: 0.0856

## GI1_CENTRAL_NERVOUS_SYSTEM
[1]
  IC50 of cell viability: 3.59 µM
[2]
  1 - AUC of viability dose-response curve: 0.132

## GOS3_CENTRAL_NERVOUS_SYSTEM
[1]
  IC50 of cell viability: 9.35 µM
[2]
  1 - AUC of viability dose-response curve: 0.0406

## GP5D_LARGE_INTESTINE
[1]
  IC50 of cell viability: > 10 µM
[2]
  1 - AUC of viability dose-response curve: 0.0606

## GRANTA519_HAEMATOPOIETIC_AND_LYMPHOID_TISSUE
[1]
  IC50 of cell viability: > 10 µM
[2]
  1 - AUC of viability dose-response curve: 0.0332

## GSS_STOMACH
[1]
  IC50 of cell viability: 3.3 µM
[2]
  1 - AUC of viability dose-response curve: 0.19

## H4_CENTRAL_NERVOUS_SYSTEM
[1]
  IC50 of cell viability: 5.48 µM
[2]
  1 - AUC of viability dose-response curve: 0.0861

## H103_UPPER_AERODIGESTIVE_TRACT
[1]
  IC50 of cell viability: 7.57 µM
[2]
  1 - AUC of viability dose-response curve: 0.0476

## H157_UPPER_AERODIGESTIVE_TRACT
[1]
  IC50 of cell viability: 8.84 µM
[2]
  1 - AUC of viability dose-response curve: 0.023

## H376_UPPER_AERODIGESTIVE_TRACT
[1]
  IC50 of cell viability: 5.33 µM
[2]
  1 - AUC of viability dose-response curve: 0.243

## H413_UPPER_AERODIGESTIVE_TRACT
[1]
  IC50 of cell viability: > 10 µM
[2]
  1 - AUC of viability dose-response curve: 0.126

## HA1E_KIDNEY
[1]
  IC50 of cell viability: > 10 µM
[2]
  1 - AUC of viability dose-response curve: 0.223

## HAC2_OVARY
[1]
  IC50 of cell viability: 6.07 µM
[2]
  1 - AUC of viability dose-response curve: 0.157

## HCA1_CERVIX
[1]
  IC50 of cell viability: 4.58 µM
[2]
  1 - AUC of viability dose-response curve: 0.132

## HCC15_LUNG
[1]
  IC50 of cell viability: 9.81 µM
[2]
  1 - AUC of viability dose-response curve: 0.0598

## HCC33_LUNG
[1]
  IC50 of cell viability: 9.27 µM
[2]
  1 - AUC of viability dose-response curve: 0.161

## HCC44_LUNG
[1]
  IC50 of cell viability: 1.66 µM
[2]
  1 - AUC of viability dose-response curve: 0.257

## HCC56_LARGE_INTESTINE
[1]
  IC50 of cell viability: 2.37 µM
[2]
  1 - AUC of viability dose-response curve: 0.242

## HCC78_LUNG
[1]
  IC50 of cell viability: 7.51 µM
[2]
  1 - AUC of viability dose-response curve: 0.164

## HCC515_LUNG
[1]
  IC50 of cell viability: 5.55 µM
[2]
  1 - AUC of viability dose-response curve: 0.103

## HCC827_LUNG
[1]
  IC50 of cell viability: 7.98 µM
[2]
  1 - AUC of viability dose-response curve: 0.0511

## HCC1143_BREAST
[1]
  IC50 of cell viability: 9.86 µM
[2]
  1 - AUC of viability dose-response curve: 0.106

## HCC1195_LUNG
[1]
  IC50 of cell viability: 9.21 µM
[2]
  1 - AUC of viability dose-response curve: 0.0206

## HCC1359_LUNG
[1]
  IC50 of cell viability: 9.67 µM
[2]
  1 - AUC of viability dose-response curve: 0.00729

## HCC1395_BREAST
[1]
  IC50 of cell viability: 5.13 µM
[2]
  1 - AUC of viability dose-response curve: 0.139

## HCC1419_BREAST
[1]
  IC50 of cell viability: 7.93 µM
[2]
  1 - AUC of viability dose-response curve: 0.0762

## HCC1428_BREAST
[1]
  IC50 of cell viability: 5.47 µM
[2]
  1 - AUC of viability dose-response curve: 0.106

## HCC1438_LUNG
[1]
  IC50 of cell viability: > 10 µM
[2]
  1 - AUC of viability dose-response curve: < 0

## HCC1806_BREAST
[1]
  IC50 of cell viability: 5.35 µM
[2]
  1 - AUC of viability dose-response curve: 0.0665

## HCC1937_BREAST
[1]
  IC50 of cell viability: > 10 µM
[2]
  1 - AUC of viability dose-response curve: 0.143

## HCC1954_BREAST
[1]
  IC50 of cell viability: 5.1 µM
[2]
  1 - AUC of viability dose-response curve: 0.0754

## HCC2108_LUNG
[1]
  IC50 of cell viability: 9.5 µM
[2]
  1 - AUC of viability dose-response curve: 0.0106

## HCC4006_LUNG
[1]
  IC50 of cell viability: > 10 µM
[2]
  1 - AUC of viability dose-response curve: 0.233

## HCSC1_CERVIX
[1]
  IC50 of cell viability: 9.79 µM
[2]
  1 - AUC of viability dose-response curve: 0.0229

## HCT116_LARGE_INTESTINE
[1]
  IC50 of cell viability: 4.75 µM
[2]
  1 - AUC of viability dose-response curve: 0.167

## HDMB03_CENTRAL_NERVOUS_SYSTEM
[1]
  IC50 of cell viability: 4.5 µM
[2]
  1 - AUC of viability dose-response curve: 0.129

## HDMYZ_HAEMATOPOIETIC_AND_LYMPHOID_TISSUE
[1]
  IC50 of cell viability: 9.62 µM
[2]
  1 - AUC of viability dose-response curve: 0.00919

## HDQP1_BREAST
[1]
  IC50 of cell viability: 8.25 µM
[2]
  1 - AUC of viability dose-response curve: 0.0753

## HEC1A_ENDOMETRIUM
[1]
  IC50 of cell viability: 3.64 µM
[2]
  1 - AUC of viability dose-response curve: 0.136

## HEC1B_ENDOMETRIUM
[1]
  IC50 of cell viability: 3.94 µM
[2]
  1 - AUC of viability dose-response curve: 0.175

## HEC1_ENDOMETRIUM
[1]
  IC50 of cell viability: 5.02 µM
[2]
  1 - AUC of viability dose-response curve: 0.131

## HEC6_ENDOMETRIUM
[1]
  IC50 of cell viability: 8.15 µM
[2]
  1 - AUC of viability dose-response curve: 0.0397

## HEC59_ENDOMETRIUM
[1]
  IC50 of cell viability: 9.3 µM
[2]
  1 - AUC of viability dose-response curve: 0.025

## HEC108_ENDOMETRIUM
[1]
  IC50 of cell viability: 5.68 µM
[2]
  1 - AUC of viability dose-response curve: 0.123

## HEC116_ENDOMETRIUM
[1]
  IC50 of cell viability: 9.57 µM
[2]
  1 - AUC of viability dose-response curve: 0.012

## HEC151_ENDOMETRIUM
[1]
  IC50 of cell viability: 5.89 µM
[2]
  1 - AUC of viability dose-response curve: 0.0839

## HEC251_ENDOMETRIUM
[1]
  IC50 of cell viability: 3.15 µM
[2]
  1 - AUC of viability dose-response curve: 0.282

## HEC265_ENDOMETRIUM
[1]
  IC50 of cell viability: 3.76 µM
[2]
  1 - AUC of viability dose-response curve: 0.109

## HEL9217_HAEMATOPOIETIC_AND_LYMPHOID_TISSUE
[1]
  IC50 of cell viability: 4.27 µM
[2]
  1 - AUC of viability dose-response curve: 0.173

## HEL_HAEMATOPOIETIC_AND_LYMPHOID_TISSUE
[1]
  IC50 of cell viability: 4.89 µM
[2]
  1 - AUC of viability dose-response curve: 0.255

## HEP3B217_LIVER
[1]
  IC50 of cell viability: 6.95 µM
[2]
  1 - AUC of viability dose-response curve: 0.0726

## HEPG2_LIVER
[1]
  IC50 of cell viability: 4.13 µM
[2]
  1 - AUC of viability dose-response curve: 0.0929

## HEYA8_OVARY
[1]
  IC50 of cell viability: 3.57 µM
[2]
  1 - AUC of viability dose-response curve: 0.117

## HGC27_STOMACH
[1]
  IC50 of cell viability: 3.92 µM
[2]
  1 - AUC of viability dose-response curve: 0.158

## HH_HAEMATOPOIETIC_AND_LYMPHOID_TISSUE
[1]
  IC50 of cell viability: 5.02 µM
[2]
  1 - AUC of viability dose-response curve: 0.0743

## HKA1_SKIN
[1]
  IC50 of cell viability: 4 µM
[2]
  1 - AUC of viability dose-response curve: 0.111

## HKGZCC_BILIARY_TRACT
[1]
  IC50 of cell viability: 1.41 µM
[2]
  1 - AUC of viability dose-response curve: 0.281

## HL60_HAEMATOPOIETIC_AND_LYMPHOID_TISSUE
[1]
  IC50 of cell viability: > 10 µM
[2]
  1 - AUC of viability dose-response curve: 0.089

## HLF_LIVER
[1]
  IC50 of cell viability: 7.5 µM
[2]
  1 - AUC of viability dose-response curve: 0.0644

## HMC18_BREAST
[1]
  IC50 of cell viability: 4.86 µM
[2]
  1 - AUC of viability dose-response curve: 0.15

## HOS_BONE
[1]
  IC50 of cell viability: 7.39 µM
[2]
  1 - AUC of viability dose-response curve: 0.0734

## HOTHC_THYROID
[1]
  IC50 of cell viability: 9.68 µM
[2]
  1 - AUC of viability dose-response curve: 0.00917

## HPAC_PANCREAS
[1]
  IC50 of cell viability: 1.1 µM
[2]
  1 - AUC of viability dose-response curve: 0.312

## HPAFII_PANCREAS
[1]
  IC50 of cell viability: 0.582 µM
[2]
  1 - AUC of viability dose-response curve: 0.396

## HPBALL_HAEMATOPOIETIC_AND_LYMPHOID_TISSUE
[1]
  IC50 of cell viability: 4.23 µM
[2]
  1 - AUC of viability dose-response curve: 0.0862

## HS294T_SKIN
[1]
  IC50 of cell viability: 5.34 µM
[2]
  1 - AUC of viability dose-response curve: 0.0895
